Assays:
Experiment in all cases: Test E preemergence
[1] = test system: velvetleaf; assay type: in vivo, Abutilon theophrasti; conditions: for Velvetleaf plant response rating: scale 0 to 100 (0 no effect, 100 complete control); for Plant response rating, Velvetleaf: scale 0 to 100, 0 no effect, 100 complete control
Excerpt: (§1) Seeds of plant species selected from corn (Zea mays), soybean (Glycine max), velvetleaf (Abutilon theophrasti), lambsquarters (Chenopodium album), wild poinsettia (Euphorbia heterophylla), palmer pigweed (Amaranthus palmeri), waterhemp (common waterhemp, Amaranthus rudis), surinam grass (Brachiaria decumbens), large (Lg) crabgrass (Digitaria sanguinalis), Brazilian crabgrass (Digitaria horizontalis), fall panicum (Panicum dichotomiflorum), giant foxtail (Setaria faberii), green foxtail (Setaria viridis), goosegrass (Eleusine indica), johnsongrass (Sorghum halepense), ragweed (common ragweed, Ambrosia elatior), barnyardgrass (Echinochloa crus-galli), sandbur (southern sandbur, Cenchrus echinatus), arrowleaf sida (Sida rhombifolia), Italian ryegrass (Lolium multiflorum), dayflower (Virginia (VA) dayflower, Commelina virginica), field bindweed (Convolvulus arvensis), morningglory (Ipomoea coccinea), nightshade (eastern black nightshade, Solanum ptycanthum), kochia (Kochia scoparia), yellow nutsedge (Cyperus esculentus), cocklebur (common cocklebur, Xanthium strumarium), smartweed (ladysthumb smartweed, and hairy beggarticks (Bidens pilosa), were planted into a silt loam soil and treated preemergence with test chemicals formulated in a non-phytotoxic solvent mixture which included a surfactant.
(§2) At the same time, plants from these crop and weed species and also horseweed (Canada horseweed, Conyza canadensis), waterhemp_RES1, (ALS & Triazine resistant common waterhemp, Amaranthus rudis), and waterhemp_RES2, (ALS & HPPD resistant common waterhemp, Amaranthus rudis) were planted in pots containing Redi-Earth® planting medium (Scotts Company, 14111 Scottslawn Road, Marysville, Ohio 43041) comprising spaghnum peat moss, vermiculite, wetting agent and starter nutrients were treated with postemergence applications of test chemicals formulated in the same manner. Plants ranged in height from 2 to 18 cm for postemergence treatments (1- to 4-leaf stage). Treated plants and controls were maintained in a greenhouse for 14 to 21 days, after which time all species were compared to controls and visually evaluated. Plant response ratings, summarized in Table E, are based on a scale of 0 to 100 where 0 is no effect and 100 is complete control. A dash (-) response means no test result.

[2] = test system: large (Lg) crabgrass; assay type: in vivo, Digitaria sanguinalis; conditions: for Crabgrass, Large plant response rating: scale 0 to 100 (0 no effect, 100 complete control); for Plant response rating, Crabgrass, Large: scale 0 to 100, 0 no effect, 100 complete control
How it was run: (§3)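 Test chemicals formulated in a non-phytotoxic solvent mixture containing a surfactant were applied preemergence to seeds in silt loam soil or postemergence to plants at the 1- to 4-leaf stage in potting mix. After 14 to 21 days in a greenhouse, injury was visually rated against controls on a 0-100 scale (0 = no effect, 100 = complete control).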

[3] = test system: fall panicum; assay type: in vivo, Panicum dichotomiflorum; conditions: for Panicum, Fall plant response rating: scale 0 to 100 (0 no effect, 100 complete control); for Plant response rating, Panicum, Fall: scale 0 to 100, 0 no effect, 100 complete control
How it was run: as §3

[4] = test system: green foxtail; assay type: in vivo, Setaria viridis; conditions: for Foxtail, Green plant response rating: scale 0 to 100 (0 no effect, 100 complete control); for Plant response rating, Foxtail, Green: scale 0 to 100, 0 no effect, 100 complete control
Excerpt: as §1, §2

[5] = test system: johnsongrass; assay type: in vivo, Sorghum halepense; conditions: for Johnsongrass plant response rating: scale 0 to 100 (0 no effect, 100 complete control); for Plant response rating, Johnsongrass: scale 0 to 100, 0 no effect, 100 complete control
How it was run: as §3

[6] = test system: ragweed; assay type: in vivo, Ambrosia elatior; conditions: for Ragweed plant response rating: scale 0 to 100 (0 no effect, 100 complete control); for Plant response rating, Ragweed: scale 0 to 100, 0 no effect, 100 complete control
How it was run: as §3

[7] = test system: arrowleaf sida; assay type: in vivo, Sida rhombifolia; conditions: for Arrowleaf Sida plant response rating: scale 0 to 100 (0 no effect, 100 complete control); for Plant response rating, Arrowleaf Sida: scale 0 to 100, 0 no effect, 100 complete control
Excerpt: as §1, §2

[8] = test system: dayflower; assay type: in vivo, Commelina virginica; conditions: for Dayflower, VA plant response rating: scale 0 to 100 (0 no effect, 100 complete control); for Plant response rating, Dayflower, VA: scale 0 to 100, 0 no effect, 100 complete control
How it was run: as §3

[9] = test system: morningglory; assay type: in vivo, Ipomoea coccinea; conditions: for Morningglory plant response rating: scale 0 to 100 (0 no effect, 100 complete control); for Plant response rating, Morningglory: scale 0 to 100, 0 no effect, 100 complete control
How it was run: as §3

[10] = test system: nightshade; assay type: in vivo, Solanum ptycanthum; conditions: for Nightshade plant response rating: scale 0 to 100 (0 no effect, 100 complete control); for Plant response rating, Nightshade: scale 0 to 100, 0 no effect, 100 complete control
Excerpt: as §1, §2

[11] = test system: hairy beggarticks; assay type: in vivo, Bidens pilosa; conditions: for Beggarticks plant response rating: scale 0 to 100 (0 no effect, 100 complete control); for Plant response rating, Beggarticks: scale 0 to 100, 0 no effect, 100 complete control
Excerpt: as §1, §2

## N#Cc1cccc(Oc2ncc(F)cn2)c1-n1cc(Cl)cn1 [Compound 73]
[1]; 16 g ai/ha
  Velvetleaf plant response rating: 0
[1]; 31 g ai/ha
  Velvetleaf plant response rating: 20
[1]; 62 g ai/ha
  Velvetleaf plant response rating: 60
[1]; 125 g ai/ha
  Plant response rating, Velvetleaf: 70
[1]; 250 g ai/ha
  Plant response rating, Velvetleaf: 95
[2]; 16 g ai/ha
  Crabgrass, Large plant response rating: 0
[2]; 31 g ai/ha
  Crabgrass, Large plant response rating: 30
[2]; 62 g ai/ha
  Crabgrass, Large plant response rating: 100
[2]; 125 g ai/ha
  Plant response rating, Crabgrass, Large: 100
[2]; 250 g ai/ha
  Plant response rating, Crabgrass, Large: 100
[3]; 16 g ai/ha
  Panicum, Fall plant response rating: 0
[3]; 31 g ai/ha
  Panicum, Fall plant response rating: 40
[3]; 62 g ai/ha
  Panicum, Fall plant response rating: 98
[3]; 125 g ai/ha
  Plant response rating, Panicum, Fall: 98
[3]; 250 g ai/ha
  Plant response rating, Panicum, Fall: 100
[4]; 16 g ai/ha
  Foxtail, Green plant response rating: 0
[4]; 31 g ai/ha
  Foxtail, Green plant response rating: 20
[4]; 62 g ai/ha
  Foxtail, Green plant response rating: 70
[4]; 125 g ai/ha
  Plant response rating, Foxtail, Green: 80
[4]; 250 g ai/ha
  Plant response rating, Foxtail, Green: 95
[5]; 16 g ai/ha
  Johnsongrass plant response rating: 0
[5]; 31 g ai/ha
  Johnsongrass plant response rating: 20
[5]; 62 g ai/ha
  Johnsongrass plant response rating: 20
[5]; 125 g ai/ha
  Plant response rating, Johnsongrass: 35
[5]; 250 g ai/ha
  Plant response rating, Johnsongrass: 85
[6]; 16 g ai/ha
  Ragweed plant response rating: 0
[6]; 31 g ai/ha
  Ragweed plant response rating: 5
[6]; 62 g ai/ha
  Ragweed plant response rating: 30
[6]; 125 g ai/ha
  Plant response rating, Ragweed: 60
[6]; 250 g ai/ha
  Plant response rating, Ragweed: 80
[7]; 16 g ai/ha, preemergence
  Arrowleaf Sida plant response rating: 5
[7]; 31 g ai/ha, preemergence
  Arrowleaf Sida plant response rating: 40
[7]; Preemergence, 62 g ai/ha
  Plant response rating, Arrowleaf Sida: 80
[7]; preemergence, 125 g ai/ha
  Plant response rating, Arrowleaf Sida: 100
[7]; preemergence, 250 g ai/ha
  Plant response rating, Arrowleaf Sida: 100
[8]; 16 g ai/ha
  Dayflower, VA plant response rating: 0
[8]; 31 g ai/ha
  Dayflower, VA plant response rating: 0
[8]; 62 g ai/ha
  Dayflower, VA plant response rating: 25
[8]; 125 g ai/ha
  Plant response rating, Dayflower, VA: 65
[8]; 250 g ai/ha
  Plant response rating, Dayflower, VA: 95
[9]; 16 g ai/ha
  Morningglory plant response rating: 0
[9]; 31 g ai/ha
  Morningglory plant response rating: 0
[9]; 62 g ai/ha
  Morningglory plant response rating: 10
[9]; 125 g ai/ha
  Plant response rating, Morningglory: 30
[9]; 250 g ai/ha
  Plant response rating, Morningglory: 60
[10]; 16 g ai/ha
  Nightshade plant response rating: 65
[10]; 31 g ai/ha
  Nightshade plant response rating: 80
[10]; 62 g ai/ha
  Nightshade plant response rating: 90
[10]; 125 g ai/ha
  Plant response rating, Nightshade: 98
[10]; 250 g ai/ha
  Plant response rating, Nightshade: 100
[11]; 16 g ai/ha, preemergence
  Beggarticks plant response rating: 5
[11]; 31 g ai/ha, preemergence
  Beggarticks plant response rating: 5
[11]; Preemergence, 62 g ai/ha
  Plant response rating, Beggarticks: 20
[11]; preemergence, 125 g ai/ha
  Plant response rating, Beggarticks: 50
[11]; preemergence, 250 g ai/ha
  Plant response rating, Beggarticks: 75

## N#Cc1cnn(-c2c(C#N)cccc2Oc2ncc(F)cn2)c1 [Compound 111]
[1]; 16 g ai/ha
  Velvetleaf plant response rating: 5
[1]; 31 g ai/ha
  Velvetleaf plant response rating: 10
[1]; 62 g ai/ha
  Velvetleaf plant response rating: 60
[1]; 125 g ai/ha
  Plant response rating, Velvetleaf: 75
[2]; 16 g ai/ha
  Crabgrass, Large plant response rating: 15
[2]; 31 g ai/ha
  Crabgrass, Large plant response rating: 35
[2]; 62 g ai/ha
  Crabgrass, Large plant response rating: 90
[2]; 125 g ai/ha
  Plant response rating, Crabgrass, Large: 100
[3]; 16 g ai/ha
  Panicum, Fall plant response rating: 0
[3]; 31 g ai/ha
  Panicum, Fall plant response rating: 5
[3]; 62 g ai/ha
  Panicum, Fall plant response rating: 80
[3]; 125 g ai/ha
  Plant response rating, Panicum, Fall: 100
[4]; 16 g ai/ha
  Foxtail, Green plant response rating: 0
[4]; 31 g ai/ha
  Foxtail, Green plant response rating: 10
[4]; 62 g ai/ha
  Foxtail, Green plant response rating: 70
[4]; 125 g ai/ha
  Plant response rating, Foxtail, Green: 90
[5]; 16 g ai/ha
  Johnsongrass plant response rating: 0
[5]; 31 g ai/ha
  Johnsongrass plant response rating: 0
[5]; 62 g ai/ha
  Johnsongrass plant response rating: 15
[5]; 125 g ai/ha
  Plant response rating, Johnsongrass: 70
[6]; 16 g ai/ha
  Ragweed plant response rating: 25
[6]; 31 g ai/ha
  Ragweed plant response rating: 50
[6]; 62 g ai/ha
  Ragweed plant response rating: 70
[6]; 125 g ai/ha
  Plant response rating, Ragweed: 90
[7]; 16 g ai/ha, preemergence
  Arrowleaf Sida plant response rating: 40
[7]; 31 g ai/ha, preemergence
  Arrowleaf Sida plant response rating: 50
[7]; Preemergence, 62 g ai/ha
  Plant response rating, Arrowleaf Sida: 70
[7]; preemergence, 125 g ai/ha
  Plant response rating, Arrowleaf Sida: 98
[8]; 16 g ai/ha
  Dayflower, VA plant response rating: 0
[8]; 31 g ai/ha
  Dayflower, VA plant response rating: 0
[8]; 62 g ai/ha
  Dayflower, VA plant response rating: 20
[8]; 125 g ai/ha
  Plant response rating, Dayflower, VA: 20
[9]; 16 g ai/ha
  Morningglory plant response rating: 20
[9]; 31 g ai/ha
  Morningglory plant response rating: 35
[9]; 62 g ai/ha
  Morningglory plant response rating: 75
[9]; 125 g ai/ha
  Plant response rating, Morningglory: 75
[10]; 16 g ai/ha
  Nightshade plant response rating: 65
[10]; 31 g ai/ha
  Nightshade plant response rating: 50
[10]; 62 g ai/ha
  Nightshade plant response rating: 80
[10]; 125 g ai/ha
  Plant response rating, Nightshade: 95
[11]; 16 g ai/ha, preemergence
  Beggarticks plant response rating: 20
[11]; 31 g ai/ha, preemergence
  Beggarticks plant response rating: 30
[11]; Preemergence, 62 g ai/ha
  Plant response rating, Beggarticks: 60
[11]; preemergence, 125 g ai/ha
  Plant response rating, Beggarticks: 80
